Columns and labels:
[1] = Long term stability of composition of pitavastatin calcium and ezetimibe (25° C./60% RH); assay type: physicochemical; conditions: Example 5 composition, Alu-alu blisters
Method: The composition of pitavastatin calcium and ezetimibe prepared in Example 5 of the present disclosure were packed in Alu-alu blisters and stored under long term stability (25° C./60% RH). The assay of pitavastatin calcium and ezetimibe as well as the impurities were measured.

[2] = tested on: chronic kidney disease patients; conditions: ezetimibe 10 mg/day co-administered with pitavastatin calcium 2 mg/day; cited from earlier work
[3] = tested on: nephrectomized rats fed high-cholesterol; conditions: cited from earlier work
[4] = Dissolution test, USP apparatus II (Paddle Method) with sinkers, HPLC; assay type: physicochemical
Method: Dissolution Methods and Assay
Dissolution medium such as 0.1N HCl, phosphate buffer (pH 4.5) and phosphate buffer (pH 6.8) were prepared following USP Method. 0.3% Tween 80 was added into the medium to help solubilize the active ingredients. Dissolution conditions were summarized as in the following. Dissolution samples were analyzed by HPLC method.
Apparatus: USP apparatus II (Paddle Method) with sinkers.
Medium: 0.1N HCl, Phosphate Buffer phosphate buffer (pH 4.5) or Phosphate Buffer phosphate buffer (pH 6.8).
Filter: 10 μm HDPE full flow filter tips

[5] = Example 1 single layered tablet, 5 min
[6] = Example 1 single layered tablet, 10 min
[7] = Example 1 single layered tablet, 15 min
[8] = Example 1 single layered tablet, 30 min
[9] = Example 1 single layered tablet, 45 min
[10] = Example 2 double layered tablet, 5 min
[11] = Example 2 double layered tablet, 10 min
[12] = Example 2 double layered tablet, 15 min
[13] = Example 2 double layered tablet, 30 min
[14] = Example 2 double layered tablet, 45 min
[15] = pellets in one capsule (Example 5), 5 min
[16] = pellets in one capsule (Example 5), 10 min
[17] = pellets in one capsule (Example 5), 15 min
[18] = pellets in one capsule (Example 5), 20 min
[19] = pellets in one capsule (Example 5), 30 min
[20] = pellets in one capsule (Example 5), 45 min

O=C1[C@H](CC[C@H](O)c2ccc(F)cc2)[C@@H](c2ccc(O)cc2)N1c1ccc(F)cc1 [Ezetimibe, ezetimibe]
Assay (%) ([1]; 3 Months): 99.5%
Impurities (%), Major ([1]; 3 Months): 0.06%
Impurities (%), Total ([1]; 3 Months): 0.06%
Assay (%) ([1]; 6 Months): 101%
Impurities (%), Major ([1]; 6 Months): 0.06%
Impurities (%), Total ([1]; 6 Months): 0.06%
Assay (%) ([1]; 9 Months): 102.9%
Impurities (%), Major ([1]; 9 Months): 0.06%
Impurities (%), Total ([1]; 9 Months): 0.06%
Assay (%) ([1]; 12 Months): 99.7%
Impurities (%), Major ([1]; 12 Months): 0.06%
Impurities (%), Total ([1]; 12 Months): 0.06%
Assay (%) ([1]; Initial): 100%
Impurities (%), Major ([1]; Initial): 0.06%
Impurities (%), Total ([1]; Initial): 0.06%
Proteinuria-lowering effects [2]: enhances proteinuria-lowering effects of pitavastatin calcium
Kidney dysfunction / kidney damage [3]: confers renoprotective effects
% Released into 0.1 N HCl with 0.3% Tween 80 at sampling time (min) [4, 5]: 56%
% Released into Phosphate Buffer (pH 6.8) with 0.3% Tween 80 at sampling time (min) [4, 5]: 54%
% Released into 0.1 N HCl with 0.3% Tween 80 at sampling time (min) [4, 6]: 70%
% Released into Phosphate Buffer (pH 6.8) with 0.3% Tween 80 at sampling time (min) [4, 6]: 77%
% Released into 0.1 N HCl with 0.3% Tween 80 at sampling time (min) [4, 7]: 77%
% Released into Phosphate Buffer (pH 6.8) with 0.3% Tween 80 at sampling time (min) [4, 7]: 86%
% Released into 0.1 N HCl with 0.3% Tween 80 at sampling time (min) [4, 8]: 86%
% Released into Phosphate Buffer (pH 6.8) with 0.3% Tween 80 at sampling time (min) [4, 8]: 94%
% Released into 0.1 N HCl with 0.3% Tween 80 at sampling time (min) [4, 9]: 91%
% Released into Phosphate Buffer (pH 6.8) with 0.3% Tween 80 at sampling time (min) [4, 9]: 96%
% Released into 0.1 N HCl with 0.3% Tween 80 at sampling time (min) [4, 10]: 30%
% Released into Phosphate Buffer (pH 6.8) with 0.3% Tween 80 at sampling time (min) [4, 10]: 42%
% Released into 0.1 N HCl with 0.3% Tween 80 at sampling time (min) [4, 11]: 56%
% Released into Phosphate Buffer (pH 6.8) with 0.3% Tween 80 at sampling time (min) [4, 11]: 72%
% Released into 0.1 N HCl with 0.3% Tween 80 at sampling time (min) [4, 12]: 67%
% Released into Phosphate Buffer (pH 6.8) with 0.3% Tween 80 at sampling time (min) [4, 12]: 80%
% Released into 0.1 N HCl with 0.3% Tween 80 at sampling time (min) [4, 13]: 79%
% Released into Phosphate Buffer (pH 6.8) with 0.3% Tween 80 at sampling time (min) [4, 13]: 88%
% Released into 0.1 N HCl with 0.3% Tween 80 at sampling time (min) [4, 14]: 83%
% Released into Phosphate Buffer (pH 6.8) with 0.3% Tween 80 at sampling time (min) [4, 14]: 91%
% Released into 0.1 N HCl with 0.3% Tween 80 at sampling time (min) [4, 15]: 71%
% Released into Phosphate Buffer (pH 4.5) with 0.3% Tween 80 at sampling time (min) [4, 15]: 64%
% Released into Phosphate Buffer (pH 6.8) with 0.3% Tween 80 at sampling time (min) [4, 15]: 69%
% Released into 0.1 N HCl with 0.3% Tween 80 at sampling time (min) [4, 16]: 95%
% Released into Phosphate Buffer (pH 4.5) with 0.3% Tween 80 at sampling time (min) [4, 16]: 99%
% Released into Phosphate Buffer (pH 6.8) with 0.3% Tween 80 at sampling time (min) [4, 16]: 96%
% Released into 0.1 N HCl with 0.3% Tween 80 at sampling time (min) [4, 17]: 99%
% Released into Phosphate Buffer (pH 4.5) with 0.3% Tween 80 at sampling time (min) [4, 17]: 103%
% Released into Phosphate Buffer (pH 6.8) with 0.3% Tween 80 at sampling time (min) [4, 17]: 102%
% Released into 0.1 N HCl with 0.3% Tween 80 at sampling time (min) [4, 18]: 100%
% Released into Phosphate Buffer (pH 4.5) with 0.3% Tween 80 at sampling time (min) [4, 18]: 104%
% Released into Phosphate Buffer (pH 6.8) with 0.3% Tween 80 at sampling time (min) [4, 18]: 103%
% Released into 0.1 N HCl with 0.3% Tween 80 at sampling time (min) [4, 19]: 101%
% Released into Phosphate Buffer (pH 4.5) with 0.3% Tween 80 at sampling time (min) [4, 19]: 105%
% Released into Phosphate Buffer (pH 6.8) with 0.3% Tween 80 at sampling time (min) [4, 19]: 104%
% Released into 0.1 N HCl with 0.3% Tween 80 at sampling time (min) [4, 20]: 101%
% Released into Phosphate Buffer (pH 4.5) with 0.3% Tween 80 at sampling time (min) [4, 20]: 105%
% Released into Phosphate Buffer (pH 6.8) with 0.3% Tween 80 at sampling time (min) [4, 20]: 104%

O=C([O-])C[C@H](O)C[C@H](O)/C=C/c1c(C2CC2)nc2ccccc2c1-c1ccc(F)cc1.O=C([O-])C[C@H](O)C[C@H](O)/C=C/c1c(C2CC2)nc2ccccc2c1-c1ccc(F)cc1.[Ca+2] [Pitavastatin Ca, pitavastatin calcium]
Assay (%) ([1]; 3 Months): 96.4%
Impurities (%), Major ([1]; 3 Months): 0.03%
Impurities (%), Total ([1]; 3 Months): 0.03%
Assay (%) ([1]; 6 Months): 97%
Impurities (%), Major ([1]; 6 Months): 0.09%
Impurities (%), Total ([1]; 6 Months): 0.09%
Assay (%) ([1]; 9 Months): 95%
Impurities (%), Major ([1]; 9 Months): 0.08%
Impurities (%), Total ([1]; 9 Months): 0.13%
Assay (%) ([1]; 12 Months): 96.5%
Impurities (%), Major ([1]; 12 Months): 0.05%
Impurities (%), Total ([1]; 12 Months): 0.05%
Assay (%) ([1]; Initial): 98.2%
Impurities (%), Major ([1]; Initial): 0.02%
Impurities (%), Total ([1]; Initial): 0.02%
Kidney dysfunction / kidney damage [3]: additively ameliorates kidney damage
% Released into 0.1 N HCl with 0.3% Tween 80 at sampling time (min) [4, 5]: 79%
% Released into Phosphate Buffer (pH 6.8) with 0.3% Tween 80 at sampling time (min) [4, 5]: 69%
% Released into 0.1 N HCl with 0.3% Tween 80 at sampling time (min) [4, 6]: 84%
% Released into Phosphate Buffer (pH 6.8) with 0.3% Tween 80 at sampling time (min) [4, 6]: 90%
% Released into 0.1 N HCl with 0.3% Tween 80 at sampling time (min) [4, 7]: 86%
% Released into Phosphate Buffer (pH 6.8) with 0.3% Tween 80 at sampling time (min) [4, 7]: 95%
% Released into 0.1 N HCl with 0.3% Tween 80 at sampling time (min) [4, 8]: 89%
% Released into Phosphate Buffer (pH 6.8) with 0.3% Tween 80 at sampling time (min) [4, 8]: 97%
% Released into 0.1 N HCl with 0.3% Tween 80 at sampling time (min) [4, 9]: 90%
% Released into Phosphate Buffer (pH 6.8) with 0.3% Tween 80 at sampling time (min) [4, 9]: 98%
% Released into 0.1 N HCl with 0.3% Tween 80 at sampling time (min) [4, 10]: 81%
% Released into Phosphate Buffer (pH 6.8) with 0.3% Tween 80 at sampling time (min) [4, 10]: 90%
% Released into 0.1 N HCl with 0.3% Tween 80 at sampling time (min) [4, 11]: 87%
% Released into Phosphate Buffer (pH 6.8) with 0.3% Tween 80 at sampling time (min) [4, 11]: 96%
% Released into 0.1 N HCl with 0.3% Tween 80 at sampling time (min) [4, 12]: 89%
% Released into Phosphate Buffer (pH 6.8) with 0.3% Tween 80 at sampling time (min) [4, 12]: 97%
% Released into 0.1 N HCl with 0.3% Tween 80 at sampling time (min) [4, 13]: 86%
% Released into Phosphate Buffer (pH 6.8) with 0.3% Tween 80 at sampling time (min) [4, 13]: 99%
% Released into 0.1 N HCl with 0.3% Tween 80 at sampling time (min) [4, 14]: 89%
% Released into Phosphate Buffer (pH 6.8) with 0.3% Tween 80 at sampling time (min) [4, 14]: 100%
% Released into 0.1 N HCl with 0.3% Tween 80 at sampling time (min) [4, 15]: 90%
% Released into Phosphate Buffer (pH 4.5) with 0.3% Tween 80 at sampling time (min) [4, 15]: 82%
% Released into Phosphate Buffer (pH 6.8) with 0.3% Tween 80 at sampling time (min) [4, 15]: 81%
% Released into 0.1 N HCl with 0.3% Tween 80 at sampling time (min) [4, 16]: 99%
% Released into Phosphate Buffer (pH 4.5) with 0.3% Tween 80 at sampling time (min) [4, 16]: 100%
% Released into Phosphate Buffer (pH 6.8) with 0.3% Tween 80 at sampling time (min) [4, 16]: 98%
% Released into 0.1 N HCl with 0.3% Tween 80 at sampling time (min) [4, 17]: 100%
% Released into Phosphate Buffer (pH 4.5) with 0.3% Tween 80 at sampling time (min) [4, 17]: 102%
% Released into Phosphate Buffer (pH 6.8) with 0.3% Tween 80 at sampling time (min) [4, 17]: 102%
% Released into 0.1 N HCl with 0.3% Tween 80 at sampling time (min) [4, 18]: 100%
% Released into Phosphate Buffer (pH 4.5) with 0.3% Tween 80 at sampling time (min) [4, 18]: 102%
% Released into Phosphate Buffer (pH 6.8) with 0.3% Tween 80 at sampling time (min) [4, 18]: 102%
% Released into 0.1 N HCl with 0.3% Tween 80 at sampling time (min) [4, 19]: 100%
% Released into Phosphate Buffer (pH 4.5) with 0.3% Tween 80 at sampling time (min) [4, 19]: 102%
% Released into Phosphate Buffer (pH 6.8) with 0.3% Tween 80 at sampling time (min) [4, 19]: 102%
% Released into 0.1 N HCl with 0.3% Tween 80 at sampling time (min) [4, 20]: 99%
% Released into Phosphate Buffer (pH 4.5) with 0.3% Tween 80 at sampling time (min) [4, 20]: 102%
% Released into Phosphate Buffer (pH 6.8) with 0.3% Tween 80 at sampling time (min) [4, 20]: 102%

— patent publication US11833133B2, “Solid oral pharmaceutical composition” (Orient Pharma Co., Ltd., priority 2020, dated 2023)
